Assay: Single-dose pharmacokinetic study of berberine and fish oil in rats
Format: in vivo, male Sprague-Dawley (SD) rats
Conditions: SD rats, single oral, BBR 100 mg/kg
Description: In the single-dose pharmacokinetic study in rats, after 7-day acclimation, healthy male Sprague-Dawley (SD) rats with the body weight of 210-250 g were randomized into six groups as follows (3 rats per group). Fish oil used in this study containing 47.8% (w/w) EPA-ethyl ester and 39.0% (w/w) DHA-ethyl ester. [table] The rats in each group were orally treated with the suspensions of the corresponding testing articles indicated above in 0.5% gum tragacanth respectively. Blood samples of the test animals were collected pre-dose and at the time points of 15 min, 30 min, 1 h, 1.5 h, 2 h, 4 h, 8 h, and 24 h post-dose. The collected blood samples (approximately 400 μL) were placed into tubes containing heparin sodium and centrifuged at 8000 rpm for 6 minutes at 4° C. to separate plasma. The obtained plasma from each sample was stored at −80° C. until being analyzed. Plasma concentrations of BBR and EPA were determined, and PK parameters were calculated.

COc1ccc2cc3[n+](cc2c1OC)CCc1cc2c(cc1-3)OCO2 [BBR, 5,6-dihydro-9,10-dimethoxybenzo[g]-1,3-benzodioxolo[5,6-a]quinolizinium]
Cmax of BBR: 4.23 ± 5.46 ng/mL | Ratio of AUC0-t of BBR compared to BBR group: 1.00 | Ratio of Cmax of BBR compared to BBR group: 1.00 | AUC(0-t) (male, Sprague-Dawley, rat, plasma, read-out: AUC0-t of BBR): 45.8 ± 60.1 ng·h/mL

— patent US20240139165A1, “METHODS AND COMPOSITIONS FOR TREATMENT OF INFLAMMATORY BOWEL DISEASE” (SHENZHEN HIGHTIDE BIOPHARMACEUTICAL, LTD., priority 2017, published 2024)
